How the values were obtained:
[1] = tested on: BxPC-3 tumors and organs; assay: Ex vivo biodistribution, BxPC-3 model; format: in vivo, mice; conditions: 4 h post injection
Experimental: After imaging, mice were sacrificed and OSC-19 and BxPC-3 tumors were quickly frozen in isopentane at -80°C for histological evaluation. Tissues were sectioned at 10 μm and fluorescence imaging was performed using fluorescence microscopy (Nikon eclipse e800, Nikon, Amsterdam, The Netherlands). All histologic sections were stained with standard hematoxylin-eosin stain (HE). Organs of mice with colorectal and pancreatic cancer were collected and imaged using the Pearl® to evaluate biodistribution.
Mice were administered with 0.25 (HT-29 model only), 1.0, 10, or 30 nmol cRGD-ZW800-1 to evaluate tumor signals, biodistribution, and to calculate TBRs (n = 3 per dose group). At 4 h (BxPC-3 model) and 24 h (HT-29 model) after injection, mice were fully dissected and fluorescence intensity of their organs was measured.
Mice bearing orthotopic OSC-19 tumors (n = 2) were administrated with 10 nmol cRGD-ZW800-1 and imaged at 4 h. Mice bearing orthotopic MCF-7 tumors (n = 2) were injected with 10 nmol cRGD-ZW800-1 and imaged at 0.5, 1, 2, 4, 6, 8, 24, and 48 h post injection. One mouse with 2 MCF-7 tumors was administered with 10 nmol cRGD-ZW800-1 and imaged at 4 h post injection while its skin was partially removed. In vivo TBRs were calculated by dividing the mean fluorescence signals of tumors by the mean of surrounding tissue. Ex vivo organ-to-tumor ratios were calculated by dividing the fluorescence intensity of the organ by that of the tumor.

[2] = biological target: AR (steroid nuclear receptor) (Homo sapiens, UniProt P10275); assay: Off-target screening (Eurofins Cerep), AR; format: binding
AR (steroid nuclear receptor), sequence (P10275 whole entry): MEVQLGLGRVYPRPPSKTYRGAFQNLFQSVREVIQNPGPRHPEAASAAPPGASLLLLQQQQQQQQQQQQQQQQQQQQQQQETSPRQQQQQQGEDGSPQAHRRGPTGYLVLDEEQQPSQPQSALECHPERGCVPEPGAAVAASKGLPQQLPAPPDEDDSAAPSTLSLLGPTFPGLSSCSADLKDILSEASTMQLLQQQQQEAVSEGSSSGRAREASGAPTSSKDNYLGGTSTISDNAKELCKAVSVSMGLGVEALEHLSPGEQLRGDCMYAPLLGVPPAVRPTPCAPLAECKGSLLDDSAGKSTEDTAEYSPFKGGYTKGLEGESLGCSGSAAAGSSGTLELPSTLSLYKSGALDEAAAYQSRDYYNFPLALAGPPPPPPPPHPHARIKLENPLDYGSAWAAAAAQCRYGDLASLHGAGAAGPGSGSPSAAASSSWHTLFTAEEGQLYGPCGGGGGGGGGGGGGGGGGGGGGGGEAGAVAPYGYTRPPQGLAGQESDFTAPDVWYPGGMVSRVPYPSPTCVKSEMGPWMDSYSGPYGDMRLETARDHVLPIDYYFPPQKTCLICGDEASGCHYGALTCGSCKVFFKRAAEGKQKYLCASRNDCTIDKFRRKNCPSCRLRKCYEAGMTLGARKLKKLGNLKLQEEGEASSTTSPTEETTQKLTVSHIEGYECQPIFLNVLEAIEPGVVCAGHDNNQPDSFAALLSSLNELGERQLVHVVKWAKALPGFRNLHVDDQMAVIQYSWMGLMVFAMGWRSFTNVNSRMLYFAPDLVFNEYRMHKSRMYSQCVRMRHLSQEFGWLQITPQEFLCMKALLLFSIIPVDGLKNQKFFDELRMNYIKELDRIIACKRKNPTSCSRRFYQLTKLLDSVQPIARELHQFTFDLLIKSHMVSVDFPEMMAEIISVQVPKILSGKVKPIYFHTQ

[3] = biological target: T1, 5-HT transporter (Homo sapiens, UniProt P31645); assay: Off-target screening (Eurofins Cerep), 5-HT transporter; format: binding
T1 construct: Eurofins Cerep SA (contract screen)
T1 sequence (P31645 whole entry): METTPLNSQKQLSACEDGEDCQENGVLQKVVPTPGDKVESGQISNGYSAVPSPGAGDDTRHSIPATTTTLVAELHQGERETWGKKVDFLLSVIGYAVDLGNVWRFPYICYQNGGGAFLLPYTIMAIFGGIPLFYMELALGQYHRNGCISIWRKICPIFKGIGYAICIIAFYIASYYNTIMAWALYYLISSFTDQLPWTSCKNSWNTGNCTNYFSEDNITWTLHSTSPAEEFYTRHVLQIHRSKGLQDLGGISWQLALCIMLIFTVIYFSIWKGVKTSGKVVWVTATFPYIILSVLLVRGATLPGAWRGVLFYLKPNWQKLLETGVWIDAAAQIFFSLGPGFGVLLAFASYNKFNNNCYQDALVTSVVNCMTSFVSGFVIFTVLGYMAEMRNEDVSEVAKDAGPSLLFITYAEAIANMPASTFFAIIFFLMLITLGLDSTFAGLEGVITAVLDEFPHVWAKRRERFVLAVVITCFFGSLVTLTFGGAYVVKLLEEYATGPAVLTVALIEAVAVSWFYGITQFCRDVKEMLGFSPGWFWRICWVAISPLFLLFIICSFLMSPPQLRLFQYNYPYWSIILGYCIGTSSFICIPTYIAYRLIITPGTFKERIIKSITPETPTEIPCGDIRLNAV

[4] = biological target: T2, Cannabinoid CB1 (Homo sapiens, UniProt P21554); assay: Off-target screening (Eurofins Cerep), CB1; format: binding
T2 construct: Eurofins Cerep SA (contract screening)
T2 sequence (P21554 whole entry): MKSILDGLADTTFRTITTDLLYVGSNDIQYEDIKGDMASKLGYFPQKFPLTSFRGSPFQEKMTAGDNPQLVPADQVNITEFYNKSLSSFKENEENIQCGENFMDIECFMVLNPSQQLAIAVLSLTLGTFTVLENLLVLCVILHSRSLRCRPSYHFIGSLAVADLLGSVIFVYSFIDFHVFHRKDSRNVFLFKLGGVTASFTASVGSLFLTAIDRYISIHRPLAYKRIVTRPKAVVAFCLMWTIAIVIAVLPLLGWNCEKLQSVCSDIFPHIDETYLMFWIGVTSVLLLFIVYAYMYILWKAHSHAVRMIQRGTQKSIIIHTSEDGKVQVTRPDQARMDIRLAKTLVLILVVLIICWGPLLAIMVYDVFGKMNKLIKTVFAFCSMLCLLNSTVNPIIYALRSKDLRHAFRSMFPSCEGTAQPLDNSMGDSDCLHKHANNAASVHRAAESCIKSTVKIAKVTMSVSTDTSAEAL

[5] = Pharmacokinetics in mice without tumors; format: in vivo
Experimental: cRGD-ZW800-1 was diluted in 0.05 mM HEPES buffered mouse serum to the concentrations 5.00, 4.50, 4.00, 3.50, 3.00, 2.50, 2.00, 1.50, 1.00, 0.50, 0.25, 0.13, 0.06, 0.03, and 0.02 μM. A calibration curve was created by measuring each concentration in 60 μL capillary tubes (Hirschmann® Laborgeräte GmbH and co. KG, Eberstadt, Germany) using the FLARE® with exposure times of: 1, 2, 5, 10, 25, 50, 100, 200, 500, 1000, and 2000 msec. Data were plotted in fluorescence intensity over concentration (μM) (Supplementary Figure 2, Supplementary Data). For each exposure time, the formula of the linear regression line was calculated. Subsequently, 5 mice without tumors were injected with 10 nmol cRGD-ZW800-1 via the lateral tail vein. The contralateral lateral tail vein was used to draw blood on the time points -5, 1, 6, 10, 20, 30, 40, 50, 60, 90, 120, and 240 min. post injection. Blood samples were absorbed using 60 μL capillary tubes and immediately measured using the FLARE® with the same exposure times. Saturated images and those under the detection limit were excluded from analysis. Each measurement was calculated back to its concentration using the matching formulas (Supplementary Figure 3, Supplementary Data). The mean of each formula output was used as the concentration. Data was analyzed using NONMEM® software (Icon Development Solutions, Ellicott City, MD, U.S.A.). Data were plotted in logarithmic and linear concentration (μM) over time (min).

[6] = tested on: U-87 MG cells; assay: In vitro competition with unlabeled cRGD, U-87 MG; format: cell-based, human; conditions: 500 nM cRGD-ZW800-1 + 500 nM unlabeled cRGD (1:1), 37°C, 2 h, vs cells without unlabeled cRGD, triplicate, p = 0.02
Experimental: For in vitro competition, U-87 MG (αvβ3 and αvβ5 positive, αvβ6 negative) and HT-29 (αvβ3 negative, αvβ5 and αvβ6 positive) cells were plated in a 96-well plate at a density of ∼40,000 and ∼60,000 cells per well, respectively. Subsequently, 500 nM of cRGD-ZW800-1 was simultaneously added to the cells and incubated at 37°C for 2 h. At the same time, half of the cells were also incubated with 500 nM unlabeled (“cold”) cRGD.
Both the cells in the binding and the competition experiment were then washed twice and imaged with the Odyssey NIR scanner (LI-COR Biosciences, Lincoln, Nebraska: focus offset 3 mm; 800-nm channel). Next, cells were permeabilized with a 40/60 mixture of acetone and methanol followed by a washing step and a 5 min incubation with ToPro3 (1/2000, Invitrogen), a far red fluorescent dye (642/661nm). The wells were then washed and again imaged with the Odyssey scanner (focus offset 3 mm; 700-nm channel) to quantify the number of cells in each well. The experiments were performed in triplicate.

[7] = biological target: T3, Acetylcholinesterase (Homo sapiens, UniProt P22303); assay: Off-target screening (Eurofins Cerep), acetylcholinesterase; format: biochemical
T3 construct: Eurofins Cerep SA (contract screen)
T3 sequence (P22303 32-614): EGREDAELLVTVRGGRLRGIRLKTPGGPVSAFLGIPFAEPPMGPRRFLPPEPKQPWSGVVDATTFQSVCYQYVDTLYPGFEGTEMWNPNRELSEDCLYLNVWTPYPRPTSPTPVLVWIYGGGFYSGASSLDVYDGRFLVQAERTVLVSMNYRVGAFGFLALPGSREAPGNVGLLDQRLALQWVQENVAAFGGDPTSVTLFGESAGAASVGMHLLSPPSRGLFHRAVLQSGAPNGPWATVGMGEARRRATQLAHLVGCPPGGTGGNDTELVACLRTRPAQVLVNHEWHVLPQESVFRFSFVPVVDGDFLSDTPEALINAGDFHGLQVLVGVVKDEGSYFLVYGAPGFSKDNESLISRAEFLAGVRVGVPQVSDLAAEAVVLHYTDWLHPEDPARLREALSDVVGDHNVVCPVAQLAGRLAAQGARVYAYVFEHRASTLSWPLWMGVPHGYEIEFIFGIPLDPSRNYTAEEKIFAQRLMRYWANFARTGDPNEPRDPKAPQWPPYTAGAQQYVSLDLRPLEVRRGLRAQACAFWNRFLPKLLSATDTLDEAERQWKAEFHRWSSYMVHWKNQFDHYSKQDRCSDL

[8] = biological target: T4, Dopamine D1 (Homo sapiens, UniProt P21728); assay: Off-target screening (Eurofins Cerep), D1; format: binding
T4 construct: Eurofins Cerep SA (contract screening)
T4 sequence (P21728 whole entry): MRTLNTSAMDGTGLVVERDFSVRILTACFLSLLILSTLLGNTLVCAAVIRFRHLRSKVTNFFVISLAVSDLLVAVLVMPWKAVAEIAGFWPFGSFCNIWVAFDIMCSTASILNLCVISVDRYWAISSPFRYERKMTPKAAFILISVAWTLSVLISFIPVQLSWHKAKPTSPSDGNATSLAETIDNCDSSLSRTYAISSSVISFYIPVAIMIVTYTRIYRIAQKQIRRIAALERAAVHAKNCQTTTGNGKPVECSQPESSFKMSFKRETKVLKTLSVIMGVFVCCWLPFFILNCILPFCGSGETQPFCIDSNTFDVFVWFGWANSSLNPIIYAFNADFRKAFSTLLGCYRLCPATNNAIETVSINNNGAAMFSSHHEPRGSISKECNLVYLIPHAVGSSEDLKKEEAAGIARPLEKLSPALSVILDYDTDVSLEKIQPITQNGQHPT

[9] = biological target: T5, Adrenergic β1 (Homo sapiens, UniProt P08588); assay: Off-target screening (Eurofins Cerep), β1; format: binding
T5 construct: Eurofins Cerep SA (contract screening)
T5 sequence (P08588 whole entry): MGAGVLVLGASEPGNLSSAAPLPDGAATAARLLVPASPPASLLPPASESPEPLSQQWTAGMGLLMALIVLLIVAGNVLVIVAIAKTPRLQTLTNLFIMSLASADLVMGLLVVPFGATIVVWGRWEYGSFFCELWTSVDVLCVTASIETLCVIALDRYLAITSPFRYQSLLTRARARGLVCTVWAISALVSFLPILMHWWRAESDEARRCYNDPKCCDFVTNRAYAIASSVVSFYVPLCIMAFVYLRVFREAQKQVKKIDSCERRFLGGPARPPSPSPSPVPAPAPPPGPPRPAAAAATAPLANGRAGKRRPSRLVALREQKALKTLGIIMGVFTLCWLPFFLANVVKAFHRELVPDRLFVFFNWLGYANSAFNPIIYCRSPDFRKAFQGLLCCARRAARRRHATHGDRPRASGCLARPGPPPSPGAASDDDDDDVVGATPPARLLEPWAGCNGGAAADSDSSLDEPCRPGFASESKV

[10] = biological target: T6, Histamine H2 (Homo sapiens, UniProt P25021); assay: Off-target screening (Eurofins Cerep), H2; format: binding
T6 construct: Eurofins Cerep SA (contract screening)
T6 sequence (P25021 whole entry): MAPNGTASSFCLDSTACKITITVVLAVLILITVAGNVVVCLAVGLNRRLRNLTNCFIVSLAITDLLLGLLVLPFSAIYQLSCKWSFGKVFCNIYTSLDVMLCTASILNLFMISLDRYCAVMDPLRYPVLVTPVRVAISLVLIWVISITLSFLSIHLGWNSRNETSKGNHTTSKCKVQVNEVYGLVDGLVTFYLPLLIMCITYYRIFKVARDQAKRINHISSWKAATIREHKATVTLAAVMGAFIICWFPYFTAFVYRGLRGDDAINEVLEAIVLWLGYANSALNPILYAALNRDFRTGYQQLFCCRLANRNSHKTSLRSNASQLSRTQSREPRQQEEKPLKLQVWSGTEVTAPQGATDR

[11] = biological target: T7, Cannabinoid CB2 (Homo sapiens, UniProt P34972); assay: Off-target screening (Eurofins Cerep), CB2; format: binding
T7 construct: Eurofins Cerep SA (contract screening)
T7 sequence (P34972 whole entry): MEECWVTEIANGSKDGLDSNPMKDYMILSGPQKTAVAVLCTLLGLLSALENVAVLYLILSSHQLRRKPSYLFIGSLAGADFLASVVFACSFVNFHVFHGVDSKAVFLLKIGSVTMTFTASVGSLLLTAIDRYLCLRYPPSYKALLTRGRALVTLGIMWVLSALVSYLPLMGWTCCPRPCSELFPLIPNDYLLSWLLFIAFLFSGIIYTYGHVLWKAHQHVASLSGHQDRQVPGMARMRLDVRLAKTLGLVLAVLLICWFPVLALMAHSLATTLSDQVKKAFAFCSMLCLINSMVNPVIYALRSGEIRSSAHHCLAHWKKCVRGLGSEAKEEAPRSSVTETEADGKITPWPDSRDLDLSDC

[12] = biological target: Opioid κ (KOP) (Rattus norvegicus, UniProt P34975); assay: biochemical; format: binding
Opioid κ (KOP), sequence (P34975 whole entry): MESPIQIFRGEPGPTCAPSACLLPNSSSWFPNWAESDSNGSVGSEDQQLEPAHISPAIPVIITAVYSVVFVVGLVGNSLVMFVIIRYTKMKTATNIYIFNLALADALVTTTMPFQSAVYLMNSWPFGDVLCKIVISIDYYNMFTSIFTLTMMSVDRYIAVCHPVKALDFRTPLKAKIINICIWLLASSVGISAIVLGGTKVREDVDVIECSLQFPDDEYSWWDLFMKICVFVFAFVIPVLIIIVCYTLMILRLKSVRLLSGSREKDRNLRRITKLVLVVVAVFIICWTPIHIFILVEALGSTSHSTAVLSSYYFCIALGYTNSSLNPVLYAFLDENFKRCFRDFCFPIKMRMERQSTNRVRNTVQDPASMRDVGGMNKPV

[13] = 10 μM cRGD-ZW800-1, format H, Ag, performed twice, read-out: % Inhibition of Control Specific Binding
[14] = 10 μM, mean of 2, read-out: % of Control Specific Binding Mean
[15] = mice, 10 nmol i.v., mean ± SD, n = 5
[16] = read-out: % Inhibition of Control Specific Binding
[17] = read-out: % of Control Specific Binding Mean

With `CC1(C)C(/C=C/C2=C(Oc3ccc(CCC(=O)NCCCC[C@@H]4NC(=O)[C@@H](Cc5ccc(O)cc5)NC(=O)[C@H](CC(=O)O)NC(=O)CNC(=O)[C@H](CCCNC(=N)N)NC4=O)cc3)C(=C/C=C3/N(CCC[N+](C)(C)C)c4ccc(S(=O)(=O)O)cc4C3(C)C)/CCC2)=[N+](CCC[N+](C)(C)C)c2ccc(S(=O)(=O)O)cc21` [cRGD-ZW800-1] the “tumor fluorescence relative to skin, intestines, lungs, muscle, gallbladder, brain, and blood” value ([1]; all doses, ex vivo, Pearl) was “at least twice as fluorescent”, the “fluorescence signals in kidneys relative to tumors” value ([1]; ex vivo) was “equal to or higher than tumors” and the “fluorescence ratios of large intestines and liver compared with tumors” value ([1]; ex vivo organ-to-tumor ratio) was “around half”. The inhibition at 10 µM [2, 13] was 9%, the remaining activity at 10 µM [2, 14] was 91.4% and the inhibition at 10 µM ([3]; 10 μM cRGD-ZW800-1, format H, An, performed twice, read-out: % Inhibition of Control Specific Binding) was -3%. For the same molecule, the remaining activity at 10 µM [3, 14] was 103%, the inhibition at 10 µM [4, 13] was -6% and the remaining activity at 10 µM [4, 14] was 106%. The Clearance ([5]; mice, 10 nmol i.v., mean systemic clearance ± SD, n = 5) was 0.25 ± 0.06 mL/min, the “Distribution (α) half-life” value [5, 15] was 0.243 ± 0.0283 h and the “Terminal (β) half-life” value [5, 15] was 1.18 ± 0.157 h. The “maximal concentration in serum” value ([5]; mice, 10 nmol i.v., measured at 1 minute post injection, n = 5, fluorescence (FLARE) with calibration curve) was 1.17 µM, the AUC ([5]; mice, 10 nmol i.v., trapezoid rule, mean ± SD, n = 5) was 38.9 ± 8.9 and the Half-life ([5]; mice, blood, 10 nmol i.v., calculated via ln(2)/k10, mean ± SD, n = 5) was 0.422 ± 0.107 h. The “Elimination (β) half-life” value ([5]; mouse no. 1) was 1.08 h, the “Elimination (β) half-life” value ([5]; mouse no. 2) was 1.42 h and the “Elimination (β) half-life” value ([5]; mouse no. 3) was 1.14 h. For the same molecule, the “Elimination (β) half-life” value ([5]; mouse no. 4) was 1.25 h, the “Elimination (β) half-life” value ([5]; mouse no. 5) was 1.03 h and the “reduction of fluorescence signal by unlabeled cRGD” value [6] was 36%. It also gave an inhibition at 10 µM ([7]; 10 μM cRGD-ZW800-1, format H, performed twice, read-out: % Inhibition of Control Specific Binding) of 2%, a remaining activity at 10 µM [7, 14] of 98.4% and an inhibition at 10 µM [8, 16] of -1%. The remaining activity at 10 µM [8, 17] was 101%, the inhibition at 10 µM [9, 16] was 18% and the remaining activity at 10 µM [9, 17] was 82.3%. For the same molecule, the inhibition at 10 µM [10, 16] was -4%, the remaining activity at 10 µM [10, 17] was 104% and the inhibition at 10 µM [11, 13] was -11%. For the same molecule, the remaining activity at 10 µM [11, 14] was 111%, the inhibition at 10 µM [12, 16] was 19% and the remaining activity at 10 µM [12, 17] was 81.2%.

— paper PMC5400565, “Real-time near-infrared fluorescence imaging using cRGD-ZW800-1 for intraoperative visualization of multiple cancer types” (Oncotarget, 2017)
